Data set [1] has as its target T1, human sEH (Homo sapiens, UniProt P34913).
T1 construct: made in house; host or cells: baculovirus expression system (insect cells implied)
T1 sequence (P34913 1-555): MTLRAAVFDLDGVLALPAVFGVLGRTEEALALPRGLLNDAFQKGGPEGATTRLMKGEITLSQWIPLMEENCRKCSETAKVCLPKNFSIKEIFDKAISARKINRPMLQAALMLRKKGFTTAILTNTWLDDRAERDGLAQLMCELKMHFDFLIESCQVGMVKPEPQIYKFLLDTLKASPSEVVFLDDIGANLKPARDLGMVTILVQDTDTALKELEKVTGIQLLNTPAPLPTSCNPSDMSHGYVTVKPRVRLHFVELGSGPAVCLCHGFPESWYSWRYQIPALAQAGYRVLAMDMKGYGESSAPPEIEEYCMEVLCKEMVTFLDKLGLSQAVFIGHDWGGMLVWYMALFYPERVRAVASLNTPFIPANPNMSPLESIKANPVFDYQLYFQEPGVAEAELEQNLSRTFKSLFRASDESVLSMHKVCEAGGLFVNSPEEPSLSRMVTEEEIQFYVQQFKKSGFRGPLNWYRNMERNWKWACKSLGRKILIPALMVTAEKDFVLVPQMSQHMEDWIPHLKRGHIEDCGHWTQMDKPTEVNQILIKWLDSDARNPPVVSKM
As to the kind of experiment: fluorescent-based sEH inhibition assay, recombinant human sEH. Format: biochemical. The following applies: baculovirus expressed recombinant human sEH, average of three replicates. As for the experimental part:
(§1) The potency of all the new compounds as inhibitors of the human and murine sEH was tested using a previously reported sensitive fluorescent-based assay using baculovirus expressed recombinant human and mouse sEH [28].

Data set [2] concerns the target T2, murine sEH (Mus musculus, UniProt P34914).
T2 construct: made in house; host or cells: baculovirus expression system (insect cells implied)
T2 sequence (P34914 1-554): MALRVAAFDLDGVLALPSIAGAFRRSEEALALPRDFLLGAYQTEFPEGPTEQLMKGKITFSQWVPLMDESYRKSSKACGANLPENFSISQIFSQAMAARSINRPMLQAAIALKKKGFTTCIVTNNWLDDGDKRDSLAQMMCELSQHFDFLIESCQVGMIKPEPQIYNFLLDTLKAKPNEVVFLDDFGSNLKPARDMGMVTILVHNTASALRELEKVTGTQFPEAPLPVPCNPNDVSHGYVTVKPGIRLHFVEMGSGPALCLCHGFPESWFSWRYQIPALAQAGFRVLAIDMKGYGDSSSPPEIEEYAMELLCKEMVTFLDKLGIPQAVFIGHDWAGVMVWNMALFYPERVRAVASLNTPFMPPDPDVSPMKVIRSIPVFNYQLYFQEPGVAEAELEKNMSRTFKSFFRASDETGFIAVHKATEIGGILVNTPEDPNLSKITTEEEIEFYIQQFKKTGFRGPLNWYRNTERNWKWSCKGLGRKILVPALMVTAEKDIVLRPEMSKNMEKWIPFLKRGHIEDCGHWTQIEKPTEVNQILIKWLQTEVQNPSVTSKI
As to the kind of experiment: fluorescent-based sEH inhibition assay, recombinant mouse sEH. Format: biochemical. The following applies: baculovirus expressed recombinant mouse sEH, average of three replicates. As for the experimental part:
as §1

Data set [3] in a line: microsomal stability, human microsomes. Format: in vitro ADME. The following applies: pooled human microsomes, pH 7.4; 60 min incubation with human microsomes, NADPH, 37 °C. As for the experimental part:
(§2) The human and murine pooled microsomes employed were purchased from Tebu-Xenotech (Barcelona, Spain). The compound was incubated at 37 °C with the microsomes in a 50 mM phosphate buffer (pH = 7.4) containing 3 mM MgCl2, 1 mM NADP, 10 mM glucose-6-phosphate and 1 U/mL glucose-6-phosphate-dehydrogenase. Samples (75 µL) were taken from each well at 0, 10, 20, 40 and 60 min and transferred to a plate containing 4 °C 75 µL acetonitrile and 30 µL of 0.5% formic acid in water were added for improving the chromatographic conditions. The plate was centrifuged (46000 g, 30 min) and supernatants were taken and analyzed in a UPLC-MS/MS (Xevo-TQD, Waters) by employing a BEH C18 column and an isocratic gradient of 0.1% formic acid in water: 0.1% formic acid acetonitrile (60:40). The metabolic stability of the compounds was calculated from the logarithm of the remaining compounds at each of the time points studied.

Data set [4] is described as follows: microsomal stability, mouse microsomes. Format: in vitro ADME. The following applies: pooled murine microsomes, pH 7.4; 60 min incubation with mouse microsomes, NADPH, 37 °C. As for the experimental part: as §2
The test system of data set [5] is microglial BV2 cells activated with LPS. As to the kind of experiment: nitric oxide generation (nitrite, Griess) in LPS-activated BV2 microglial cells. The following applies: compound at 100 µM, LPS, 24 h, percentage of LPS value. In kind it is cell-based. As for the experimental part: Inflammatory changes were determined by the measure of nitric oxide generation, as the endpoint of iNOS activation, in microglial BV2 cells. BV2 cells (HyperCLDB, Banca Biologica e Cell Factory, ICLC ATL 03001) were grown in RPMI 1640 medium, supplemented with L-glutamine 2 mM, gentamycin 50 µM and 10% FBS. For experiments, cells were seeded in 96-well plates at 2 × 10^5 cells/mL, 100 µL/well. […] After 1 h of incubation, the cells were treated with the pro-inflammatory chemical LPS (0.1 μg/mL or 1 μg/mL; strain E. coli […], Sigma-Aldrich, L-2654, batch #120M4028) and further incubated for 24 h. TPPU at 100 µM was also assayed as a reference anti-inflammatory compound. DMSO 0.1% was used as vehicle. Cells were maintained at 37 °C in a humidified incubator with 5% CO2 throughout the procedures. Nitric oxide released to the culture medium was measured by the colorimetric Griess reaction that detects nitrite (NO2^–), a stable reaction product of nitric oxide and molecular oxygen. Briefly, 50 µL of conditioned medium were incubated with 50 µL of Griess reagent for 10 min at room temperature. Optical density was measured at 540 nm. Nitrite concentration was determined from a sodium nitrite standard curve. Results were normalized by cell protein content in the well and expressed as a percentage of the average maximal values given by the pro-inflammatory agent (LPS 1 µg/mL). Each treatment was performed in 3–5 wells and the whole experiment was repeated 3–4 times in cultures of different cell passage. Data were analyzed by ANOVA followed by Tukey’s multiple comparisons test.
A general note: Griess reagent forms a coloured azo dye with nitrite.

On the set-up of data set [6]: method as in PMID 33945278. The following applies: Figure 2 legend; cited from earlier work.

Results on 14 compounds are retold here after PMC8703317, “2-(Piperidin-4-yl)acetamides as Potent Inhibitors of Soluble Epoxide Hydrolase with Anti-Inflammatory Activity” (Pharmaceuticals, 2021).

With `N#Cc1ccc(N2CCC(CC(=O)NC34CC5CC(F)(CC(C3)c3ccccc35)C4)CC2)cc1` [10b, 2-(1-(4-Cyanophenyl)piperidin-4-yl)-N-(9-fluoro-5,6,8,9,10,11-hexahydro-7H-5,9:7,11-dimethanobenzo[9]annulen-7-yl)acetamide], the melting point (in general, the temperature of the solid-liquid transition) lay within 180 to 181 °C. Further, the 50% inhibitory concentration (IC50) – broadly, the concentration at which inhibition is half-maximal – in data set [1] was 3.4 nM. Besides, the IC50 in data set [2] amounted to 0.4 nM. The fraction remaining – broadly, the share of the starting amount still present when the sample was taken – at 1 h in data set [3] was found to be 0%. The compound further came in with a share remaining at 1 h in data set [4] of 0.1%.
Take `CC(=O)c1ccc(N2CCC(CC(=O)NC34CC5CC(F)(CC(C3)c3ccccc35)C4)CC2)cc1` [10a, 2-(1-(4-Acetylphenyl)piperidin-4-yl)-N-(9-fluoro-5,6,8,9,10,11-hexahydro-7H-5,9:7,11-dimethanobenzo[9]annulen-7-yl)acetamide]: the melting point lay in the range of 229 to 230 °C. Further, in data set [1], the 50% inhibitory concentration (IC50) was 0.6 nM. The IC50 in data set [2] is 0.7 nM. The compound also displayed an amount remaining at 1 h in data set [3] of 0.1%. Besides, the share remaining at 1 h in data set [4] worked out at 0.1%.
`CC(C)S(=O)(=O)N1CCC(CC(=O)NC23CC4CC(C2)c2ccccc2C(C4)C3)CC1` [6e, N-(5,6,8,9,10,11-Hexahydro-7H-5,9:7,11-dimethanobenzo[9]annulen-7-yl)-2-(1-(isopropylsulfonyl)piperidin-4-yl)acetamide] yielded a melting point of 136 to 137 °C. Further, the IC50 in data set [1] came to 2.8 nM. In addition, the IC50 in data set [2] worked out at 0.5 nM. In data set [3], the fraction remaining at 1 h came to 0.6%. Moreover, the amount remaining at 1 h in data set [4] was 0.2%.
Regarding `CC(C)S(=O)(=O)N1CCC(CC(=O)NC23CC4CC(C)(CC(C2)c2ccccc24)C3)CC1` [6b, 2-[1-(Isopropylsulfonyl)piperidin-4-yl]-N-(9-methyl-5,6,8,9,10,11-hexahydro-7H-5,9:7,11-dimethanobenzo[9]annulen-7-yl)acetamide], the results for the IC50 in data set [1] and in data set [2] were 30.2 nM and 0.4 nM, respectively. Besides, the fraction remaining at 1 h in data set [3] and in data set [4] was 0% each time.
For the compound `CCC(=O)N1CCC(NC(=O)Nc2ccc(OC(F)(F)F)cc2)CC1` [TPPU, reference compound], the “nitric oxide release induced by LPS, reduced to” value in data set [5] is on record as “approximately 50%”.
For the compound `CC12CC3CC(NC(=O)CC4CCN(Cc5ccccc5)CC4)(CC(C1)c1ccccc13)C2` [6g, 2-(1-Benzylpiperidin-4-yl)-N-(9-methyl-5,6,8,9,10,11-hexahydro-7H-5,9:7,11-dimethanobenzo[9]annulen-7-yl)acetamide], the figures for the half-maximal inhibitory concentration (IC50) in data set [1] and in data set [2] were 37.5 nM and 3.3 nM, respectively. The share remaining at 1 h in data set [3] and in data set [4] was 0.1% each time.
Turning to `O=C(CC1CCN(c2ccc(C(=O)O)cc2C2CC2)CC1)NC12CC3CC(F)(CC(C1)c1ccccc13)C2` [10d, 3-Cyclopropyl-4-(4-(2-((9-fluoro-5,6,8,9,10,11-hexahydro-7H-5,9:7,11-dimethanobenzo[9]annulen-7-yl)amino)-2-oxoethyl)piperidin-1-yl)benzoic Acid], the melting point was in the range of 190 to 191 °C. Further, in data set [1], the IC50 worked out at 0.4 nM. The IC50 in data set [2] is 0.2 nM. The fraction remaining at 1 h in data set [3] worked out at 11%. The fraction remaining at 1 h in data set [4] came out at 2%.
As for `O=C(CC1CCN(c2ccc(C(=O)O)cc2)CC1)NC12CC3CC(Cl)(CC(C1)c1ccccc13)C2` [10e], the concentration for half-maximal inhibition (IC50) came out at 1.7 nM in data set [1] and 0.7 nM in data set [2]. In addition, the share remaining at 1 h in data set [3] is 52%; in data set [4] it was 6%.
`CC(C)S(=O)(=O)N1CCC(CC(=O)NC23CC4CC(Cl)(CC(C2)c2ccccc24)C3)CC1` [6d, N-(9-Chloro-5,6,8,9,10,11-hexahydro-7H-5,9:7,11-dimethanobenzo[9]annulen-7-yl)-2-(1-(isopropylsulfonyl)piperidin-4-yl)acetamide] showed a melting point of 163 to 164 °C. Besides, the half-inhibitory concentration (IC50) in data set [1] came to 1 nM. Also, in data set [2], the IC50 was determined as 0.4 nM. Besides, the amount remaining at 1 h in data set [3] was 7%. This compound also had an amount remaining at 1 h in data set [4] of 1.4%.
As to `[2H]C12CC3CC(NC(=O)CC4CCN(S(=O)(=O)C(C)C)CC4)(CC(C1)c1ccccc13)C2` [6f, N-(5,6,8,9,10,11-Hexahydro-7H-5,9:7,11-dimethanobenzo[9]annulen-7-yl-9-d)-2-(1-(isopropylsulfonyl)piperidin-4-yl)acetamide], the melting point was in the range of 138 to 139 °C. For the same compound, the concentration for half-maximal inhibition (IC50) in data set [1] turned out to be 2.4 nM. Besides, the IC50 in data set [2] came to 0.4 nM. For the same compound, the amount remaining at 1 h in data set [3] was 1.3%. This compound showed a share remaining at 1 h in data set [4] of 0.5%.
Take `CC(=O)N1CCC(NC(=O)NC23CC4CC(C)(CC(C2)c2ccccc24)C3)CC1` [compound 1, reference compound]: the share remaining at 1 h in data set [3] and in data set [4] was 1% each time. Moreover, the “microsomal stability (% remaining at 1 h) mouse” value in data set [6] was 0.5%.
Compound `CC(C)S(=O)(=O)N1CCC(CC(=O)NC23CC4CC(F)(CC(C2)c2ccccc24)C3)CC1` [6c, N-(9-Fluoro-5,6,8,9,10,11-hexahydro-7H-5,9:7,11-dimethanobenzo[9]annulen-7-yl)-2-(1-(isopropylsulfonyl)piperidin-4-yl)acetamide] yielded a melting point of 192 to 193 °C. Besides, in data set [1], the 50% inhibitory concentration (IC50) turned out to be 1.6 nM. The IC50 in data set [2] worked out at 0.4 nM. For the same compound, in data set [3], the share remaining at 1 h was 5.5%. Besides, in data set [4], the fraction remaining at 1 h amounted to 5.1%.
Regarding `O=C(CC1CCN(Cc2ccccc2)CC1)NC12CC3CC(F)(CC(C1)c1ccccc13)C2` [6h, 2-(1-Benzylpiperidin-4-yl)-N-(9-fluoro-5,6,8,9,10,11-hexahydro-7H-5,9:7,11-dimethanobenzo[9]annulen-7-yl)acetamide], the melting point was in the range of 164 to 165 °C. Further, the half-inhibitory concentration (IC50) in data set [1] was 21.4 nM. In addition, the IC50 in data set [2] came out at 12.9 nM. In data set [3], the share remaining at 1 h came out at 0.3%. For the same compound, the share remaining at 1 h in data set [4] came to 0.1%.
For `CC(=O)N1CCC(CC(=O)NC23CC4CC(C)(CC(C2)c2ccccc24)C3)CC1` [6a, 2-(1-Acetylpiperidin-4-yl)-N-(9-methyl-5,6,8,9,10,11-hexahydro-7H-5,9:7,11-dimethanobenzo[9]annulen-7-yl)acetamide], the IC50 in data set [1] stood at 34.5 nM; in data set [2], 0.4 nM. Moreover, the values for the fraction remaining at 1 h in data set [3] and in data set [4] were 0.3% and 0%, respectively.
